Results published in US4665064A, “Pharmaceutical compositions and methods for increasing zinc levels” (National Research Development Corporation, priority 1983, dated 1987).
Like-named read-outs stand apart in the source and are kept apart here.

Tests used:
physchem = type: physicochemical; details: for Kpart compared with maltol (compound and its 2:1 zinc complex): in words
Procedure: A good indication of the physical properties of a ligand-providing compound and of an zinc complex in this respect is provided by the value of the partition coefficient (Kpart)obtained on partition between n-octanol and Tris hydrochloride (20 mM, pH 7.4; Tris representing 2-amino-2 hydroxymethylpropane 1,3-diol) at 20° C. and expressed as the ratio (concentration in organic phase)/(concentration in aqueous phase). Preferred complexes show a value of Kpart for each ligand-providing compound of above 0.02 or 0.05 but less than 3.0, especially of above 0.2 but less than 1.0, together with a value of Kpart for the 2:1 zinc(II) complex of above 0.02 but less than 6.0, especially of 0.05 or 0.1 to 1.0. The value of Kpart for maltol is 0.66 and for the neutral 2:1 maltol:zinc complex is 0.11 which values lie in the especially preferred ranges. It will be appreciated, however, that the wide range of ligands which may be present in zinc complexes according to the present invention allows the preparation of complexes having partition coefficients lying throughout the entire ranges given. Thus, for example, a 2:1 complex having a higher partition coefficient than 0.1 may be obtained by using maltol as one ligand and another compound as the second ligand. Alternatively, higher partition coefficients may be obtained, if desired, by the use of hydroxypyrone compounds containing additional and/or larger aliphatic hydrocarbon group substituents on the ring.
Partition data on zinc complexes and on ligand-providing compounds
The partition coefficient Kpart, being the ratio (concentration in n-octanol)/(concentration in aqueous phase) on partition between n-octanol and aqueous tris hydrochloride (20 mM, pH 7.4; Tris represents 2-amino-2-hydroxymethylpropane 1,3-diol), is measured at 20° C. for zinc complexes containing various ligands and for their corresponding ligand-providing compounds as listed in Table 1. In the case of certain of the complexes the partition coefficient for the 2:1 ligand:zinc(II) complex is also measured in the presence of various amounts of the metal-free ligand-providing compound in excess of a b 1:2 zinc(II):compound ratio.
In each case, the material is dissolved initially in the aqueous Tris hydrochloride at a concentration of 10^-4 M in relation to zinc. The zinc complexes radiolabelled with ^65 Zn are prepared in situ in the buffer by the addition of ^65 Zn labelled ZnCl2 to an appropriate amount of the metal-free ligand-providing compound and subsequent adjustment of the pH to 7.4 by the addition of Tris free base. Acid washed glassware is used throughout and, following mixing of 5 ml of the 10^-4 M aqueous solution with 5 ml of n-octanol for 1 minute, the aqueous n-octanol mixture is centrifuged at 1,000 g for 30 seconds. […]

inverted rat jejunal sac = type: in vitro ADME, rat (male Sprague Dawley); details: 37° C., up to 1 hour, Krebs Ringer buffer
Description: In the case of the hydroxypyrone ligands it will be seen that the uptake again increases with the increase in the amount of free compound which is present as a result of an increase in the amount of the 2:1 complex which is present.

[1] = recognised property; in words; cited from earlier work
human erythrocytes = type: in vitro ADME; details: not told
Procedure: The zinc complex was formed in situ in the buffered solution using ^65 Zn labelled ZnSO4 at a concentration of 0.25 mM together with maltol or ethylpyromeconic acid in a molar ratio of zinc:compound of 1:0, 1:2, 1:5, 1:10 or 1:20, i.e. the concentration of the ligand-providing compound being 0, 0.5, 1.25, 2.5 or 5 mM, respectively. The proportions of 1:2, 1:5, 1:10 and 1:20 provide an increasing amount of the neutral 2:1 zinc(II) complex together with varying amounts of the free compound as explained in Example 4, a small amount of Tris free base (to about 2 mM) being added to avoid an acid pH on reaction to form the complex.
It will be seen that the uptake increases with an increase in the amount of free compound present as the proportion of zinc present as the 2:1 ligand:zinc(II) complex is increased through the mass action effect.

[2] = in words
apotransferrin = assay: Ability of zinc complexes to donate zinc to apotransferrin; type: biochemical; details: apotransferrin 10^-4 M, ZnSO4 10^-4 M with 10 molar proportion of maltol, pH 7.4, 37° C., 10 minutes
Procedure: Apotransferrin (10^-4 M) and the ^65 Zn radiolabelled zinc complex of maltol (the complex being prepared in situ in the buffer using ^65 Zn radiolabelled ZnSO4 at a concentration of 10^-4 M and a 10 molar proportion of maltol) were incubated together in Tris hydrochloride (50 mM, buffered to pH 7.4) at 37° C. for 10 minutes when a 1 ml aliquot was removed from the medium and added to a PD10 column. 0.5 ml fractions were collected directly into scintillation vials for counting.

In the case of `CCc1occc(=O)c1O` [ethylpyromeconic acid, 2-ethyl-3-hydroxy-4-pyrone, reference compound], the “Kpart compared with maltol (compound and its 2:1 zinc complex)” value (physchem) is reported as “higher than those for maltol” and the logD (physchem; n-octanol/tris buffer, pH 7.4) is reported as -0.125.
With `Cc1occc(=O)c1O` [maltol, 3-hydroxy-2-methyl-4-pyrone, reference compound] the “Free compound Kpart” value (physchem; free ligand-providing compound, n-octanol/Tris hydrochloride 20 mM pH 7.4, 20° C.) was 0.66.
With `CCn1cccc(O)c1=O.[Zn]` [zinc 1-ethyl-3-hydroxypyrid-2-one] the “Uptake of zinc into serosal compartment of rat jejunal sac” value (inverted rat jejunal sac; Zinc:compound 1:2) was 36.4 n. mole and the “Uptake of zinc into serosal compartment of rat jejunal sac” value (inverted rat jejunal sac; Zinc:compound 1:10) was 24.2 n. mole.
For `CC(=O)[O-].CC(=O)[O-].[Zn+2]` [zinc acetate], the emetic property [1] is given as “recognised emetics”.
In the case of `CCc1occc(=O)c1[O-].CCc1occc(=O)c1[O-].[Zn+2]` [zinc ethylpyromeconic acid], the “uptake of the 2:1 complex in tests on the permeation of erythrocytes” value (human erythrocytes) is reported as “greater uptake” and the “Kpart compared with maltol (compound and its 2:1 zinc complex)” value (physchem) is reported as “higher than those for maltol”.
With `Cc1occc(=O)c1O.[Zn]` [zinc maltol] the lability [2] was “extremely labile”, the “zinc removed from the zinc complex” value (apotransferrin) was “over 95%” and the “inhibition of the uptake of zinc” value (everted rat jejunum) was “no inhibition on the uptake of zinc”.
For `O=S(=O)([O-])[O-].[Zn+2]` [zinc sulphate], the emetic property [1] is given as “recognised emetics”.
For `[Zn+2]` [zinc], the “non-specific binding to the mucosal surface” value (everted rat jejunum) was “rapidly removed from the incubation medium by binding to the mucosal surface” and the permeation (everted rat jejunum) was “little permeation occurs”.
